Laboratory results reported in patent publication US9993002B2, “1,2,3-thiadiazol-5yl-urea derivatives, use thereof for regulating plant senescence and preparations containing these derivatives” (USTAV EXPERIMENTALNI BOTANIKY AV CR, V.V.I., priority 2014, dated 2018).

Columns and labels:
winter oilseed rape = assay: Field experiment, winter oilseed rape, foliar spray; assay type: in vivo; conditions: 25 μM foliar spray, BBCH 50
Procedure: (§1) All field experiments were done according to criteria for Good Experimental Practices. Six repetitions (10 m^2 each) were used per one variant. Field trials were not treated by growth regulators and fungicides, except of applied compound 1-furfuryl-[1,2,3]thiadiazol-5-yl-urea. N-furfuryl-N′-1,2,3-thiadiazol-5-yl-urea was applied once at the precise time (extension growth BBCH 50), by foliar spray at a concentration of 25 μM. For each variant at least 50 plants were used to obtain morphology parameters. Statistical evaluation was executed in stat. program PAST v. 2.17c.

spring barley = assay: Field experiments, spring barley, years 2014 and 2015, foliar spray; assay type: in vivo
Procedure: as §1
All field experiments were done according to criteria for Good Experimental Practices as described in example 17. N-furfuryl-N′-1,2,3-thiadiazol-5-yl-urea was applied once at the precise time (extension growth BBCH 50), by foliar spray at a concentration of 25 μM in a year 2014 and at a concentration of 5 μM in a year 2015. For each variant at least 50 plants were used to obtain morphology parameters. Statistical evaluation was executed in stat. program PAST v. 2.17c.

[1] = Toxicity towards human skin fibroblasts (Calcein AM assay); assay type: cell-based
Procedure: Cytotoxicity of the compounds to human skin fibroblasts (BJ cell line) was determined in a standard Calceinovém AM test. Cells were maintained in plastic tissue culture flasks and grown in Dulbecco's modified Eagle's medium for cell culture (DMEM) at 37° C. in 5% CO2 and 100% humidity. Cells were placed into 96-well microtiter plates (Nunc, Denmark) and after 12 hours pre-incubation, the tested compound was added to a final concentration ranging from […]. Cells were incubated for 72 hours. At the end of incubation period Calcein AM was added in PBS to a final concentration of […]. After 1 hour of incubation fluorescence was measured at 485/538 nm (ex/em wavelength) using Fluoroskan Ascent (Labsystems, Finland). IC50 values (the concentration causing reduction of calcein AM conversion to 50%) were calculated from the curves obtained. All experiments were repeated four times with a maximum deviation of 15%. Due to the limited solubility of substances in water, all the tested compounds were dissolved in DMSO and diluted with water to a final concentration.

[2] = system: detached leaves of Triticum aestivum cv. Hereward; assay: Membrane lipid peroxidation (MDA, TBA method) in detached wheat leaves in the dark; conditions: four days in the dark
Procedure: A typical symptom associated with senescence as a direct consequence of increased reactive oxygen species is membrane lipid peroxidation which produces malondialdehyde (MDA). Therefore the levels of MDA, a decomposition product of lipid peroxidation, were measured in detached wheat leaves that were exposed to the prepared novel derivatives or BAP for four days in the dark as described in Example 7. MDA levels were measured using a thiobarbituric acid (TBA) method. In detail, 100 mg of fresh plant material was homogenized by high speed shaking in a ball mill (MM301, Retsch, Germany) with 1 mL of 70% methanol. The crude extract was centrifuged at 10,000×g for 5 min, and 100 μL aliquot of supernatant was vortexed with 100 μL of 0.5% (w/v) TBA containing 0.1% (w/v) trichloroacetic acid, and the resulting solution was then incubated for 30 min at 95° C. The samples were quickly cooled on ice and centrifuged for 5 min at 1000 g. The absorbance of supernatant was measured at 532 nm with background subtraction at 600 nm and the amount of MDA-TBA complex was calculated from the coefficient of absorbance 155 mM^−1 cm^−1.

[3] = system: Arabidopsis thaliana (wild-type Col-0); assay: Root growth and lateral root formation of Arabidopsis; assay type: in vivo; conditions: 10 nM, two weeks after transfer
Procedure: To investigate in vivo effect of the new derivatives on the root growth and development, seeds of Arabidopsis thaliana (wild-type Col-0) were surface sterilized and sown on vertical plates on half-strength Murashige-Skoog medium (supplied with 0.1% sucrose and 6 g/L phytagel) containing 10 nM BAP or 10 nM 1,2,3-thiadiazol-5-yl-urea derivative, or 0.01% DMSO (solvent control). After vernalization (4 days in the dark, 4° C.) plates were transferred into the growth chamber (22° C., 16/8 light/dark). Two weeks after transfer, seedlings were photographed and root elongation and lateral root formation was scored using Scion image software (Scion Corp., Frederick, Md., USA). At least 40 plants were measured for each treatment.

[4] = system: detached leaf segments of Triticum aestivum cv. Hereward; assay: Senescence bioassay on wheat leaf segments in dark/light conditions; conditions: foliar, 168 h, dark/light 8/16, 22° C., 7 days, read-out: Senescence bioassay (IC50)
Procedure: (§2) Seeds of winter wheat, Triticum aestivum cv. Hereward, were washed under running water for 24 hours and then sown on perlite soaked with Hogland's solution. They were placed in the growth chamber at 25° C. with a 16/8 h light period at 50 μmol·m^−2·s^−1. After 7 days, the first leaf was fully developed and the second leaf had started to grow. A tip section of the first leaf, approximately 4 cm long, was removed from 4 seedlings and trimmed slightly to a combined weight of 100 mg. The basal ends of the four leaf tips were placed into the 96-wells plate containing 150 μL of the tested derivative solution each. The entire plate was inserted into a plastic box lined with paper tissues soaked in distilled water to prevent leaf sections from drying out. After 96 h incubation in the dark at 25° C., the leaves were removed and chlorophyll extracted by heating at 80° C. for 10 min in 5 mL of 80% ethanol (v/v). The sample volume was then restored to 5 mL by the addition of 80% ethanol (v/v). The absorbance of the extract was recorded at 665 nm. In addition, chlorophyll extracts from fresh leaves and leaf tips incubated in deionised water were measured. The results are means of five replicates and the entire test was repeated at least twice. […] The compounds to be tested were dissolved in dimethylsulfoxide (DMSO) and the solution brought up to 10^−3 M with distilled water. […] The IC50 values were determined for standard (BAP) and novel tested compounds.
The ability of the novel compounds to retard chlorophyll degradation in detached wheat leaves was tested also in the light conditions. The experiment was performed as described in Example 7 with modifications as follows—the incubation of the leaves with the compounds was done in the dark/light conditions 8/16 (light—100 μmol·m^−2·s^−1) at 22° C. for 7 days. […] The newly prepared substituted 1,2,3-thiadiazol-5-yl urea derivatives of the invention are much stronger anti-senescent compounds in comparison to the BAP in retarding senescence under optimal (dark/light) conditions.

wheat leaves = assay: Ethylene production (defoliating activity) assay; parameters: species or system Triticum aestivum; conditions: 10 μM, 96 h in the dark at 25° C.; control 270 (±15)
Procedure: We investigated the effect of the compounds of the invention on ethylene production in wheat leaves. The leaves were obtained as described in Example 8, placed in 5 mL glass vials and immersed at 10 μM solutions of tested compounds of the invention or TDZ. Distilled water was used as a control treatment. After 96 h incubation in the dark at 25° C., 1 mL of air was taken from the vials and content of ethylene in it was determined using gas chromatography with the flame ionization detector (GC-FID) method described by Fišerová et al. (Fišerová H, Kula E, Klemš M, Reinöhl V (2001) Phytohormones as indicators of the degree of damage in birch (Betula pendula). Biológia 56: 405-409).

[5] = system: detached leaf segments of Triticum aestivum cv. Hereward; assay: Senescence bioassay on wheat leaf segments in dark conditions; conditions: Triticum aestivum, foliar; dark, 96 h, 25° C., chlorophyll absorbance 665 nm; read-out: Senescence bioassay (IC50)
Procedure: as §2

Row | SMILES | Seed yield, % of control (winter oilseed rape) [%] | WTK, % of control (winter oilseed rape) [%] | Seed yield, % of control (spring barley; Year 2014, 25 μM foliar spray) [%] | grains per ear, % of control (spring barley; Year 2014, 25 μM foliar spray) [%] | Seed yield, % of control (spring barley; Year 2015, 5 μM foliar spray) [%] | CC50 at 72 h [1] [µM] | MDA [2] | Lateral root number [3] | Primary root lenght [3] | IC50 [4] [µM] | Ethylene produced (wheat leaves) | IC50 [5] [µM]
1 | O=C(NCc1ccco1)Nc1cnns1 [N-furfuryl-N′-1,2,3-thiadiazol-5-yl-urea] | 120.9 | 110 | 104.8 | 104.6 | 106.8 |  |  |  |  |  |  | 
2 | O=C(NCC1CCCO1)Nc1cnns1 (stereo not drawn) [Compound 75, 1-(tetrahydro-furan-2-yl-methyl)-3-[1,2,3]thiadiazol-5-yl-urea] |  |  |  |  |  | > 100 | 15.2 (±0.7) nmol/g FW | 17 (±6) | 44 (±16) mm | 0.42 | 282 (±19) nL/g FW | 11.2
